This note sets out measurements from patent US11236122B2, “Triterpene amine derivatives” (DFH THERAPEUTICS, priority 2018, dated 2022).

Where a name gives a salt, the structure may show the parent alone.

The subject of one assay is pNL4-3 SP1-V7A. The assay is described as follows: CA-SP1 accumulation assay, SP1-V7A derivative. Type of assay: cell-based, HIV-1. The conditions noted are these: HeLa or 293T cells; for % CA-SP1 Accumulation 100 nM SP1 V7A: 100 nM compound; for % CA-SP1 Accumulation 10 nM SP1 V7A: 10 nM compound. On the procedure:
(§1) Cell culture, plasmids and transfections. The MT-4 T-cell line was maintained in RPMI-1640 medium supplemented with 10% (vol/vol) fetal bovine serum (FBS), 2 mM glutamine, 100 U/mL penicillin and 100 μg/mL streptomycin at 37° C. in a humidified 5% CO2 atmosphere. HeLa and 293T cells were maintained in Dulbecco's modified Eagle's medium (DMEM) supplemented with 5% (vol/vol) FBS, 2 mM glutamine, 100 U/mL penicillin and 100 μg/mL streptomycin. Molecular clones used in this study were WT pNL4-3 and the derivative encoding a Val-to-Ala mutation at SP1 residue 7, referred to as SP1-V7A. The MT-4 T-cell line was transfected the DEAE/dextran procedure; HeLa and 293T cells were transfected with linear polyethylenimine (L-PEI) or Lipofectamine 2000 (Invitrogen) as recommended by the supplier.
(§2) CA-SP1 accumulation assay. For CA-SP1 accumulation assays, HeLa or 293T cells were transfected with WT pNL4-3 or the SP1-V7A derivative. At 24 h post-transfection, cells were starved in Met/Cys-free medium for 30 min and metabolically labeled with [^35S]Met/Cys-Pro-mix (Amersham) for 2-3 h. Maturation inhibitors were maintained in the cultures throughout the transfection and labeling period. Viruses were collected by ultracentrifugation at 99,000×g for 45-60 min. Virus pellets were resuspended in Triton X-100 lysis buffer [300 mM NaCl, 50 mM Tris-HCl (pH 7.5), 0.5% Triton X-100, 10 mM iodoacetamide, and protease inhibitor cocktail tablets (Roche)]. CA and CA-SP1 proteins were separated on 13.5-15% polyacrylamide gels by SDS-polyacrylamide gel electrophoresis, exposed to a phosphorimager plate (Fuji) and quantified by Quantity One software (Bio-Rad).

Another assay deals with WT pNL4-3. The assay is described as follows: CA-SP1 accumulation assay, WT NL4-3. Type of assay: cell-based, HIV-1. The conditions noted are these: HeLa or 293T cells; for % CA-SP1 Accumulation 100 nM NL4-3: 100 nM compound; for % CA-SP1 Accumulation 10 nM NL4-3: 10 nM compound. On the procedure:
as §1, §2

As to `CCN1CCC(NCC[C@]23CC[C@@H](C4(C)CC4)[C@@H]2[C@H]2CC[C@@H]4[C@@]5(C)CC[C@H](OC(=O)CC(C)(C)C(=O)O)C(C)(C)[C@@H]5CC[C@@]4(C)[C@]2(C)CC3)CC1` [Compound 51k], in the assay on pNL4-3 SP1-V7A, the “% CA-SP1 Accumulation 100 nM SP1 V7A” value is reported as 27.3 (2) %. Also, the “% CA-SP1 Accumulation 100 nM NL4-3” value in the assay with WT pNL4-3 is given as 55.0 (2) %.
On to `C=C(C)[C@@H]1CC[C@]2(CCNCCCN3CCCC3=O)CC[C@]3(C)[C@H](CC[C@@H]4[C@@]5(C)CC[C@H](OC(=O)CC(C)(C)CC(=O)O)C(C)(C)[C@@H]5CC[C@]43C)[C@@H]12` [Compound 51a, (3β)-17-[2-[[3-(2-Oxopyrrolidin-1-yl)propyl]amino]ethyl]-28-norlup-20(29)-en-3-ol, 3-(Hydrogen 3,3-Dimethylpentanedioate)], for which, in the assay on pNL4-3 SP1-V7A, the “% CA-SP1 Accumulation 100 nM SP1 V7A” value amounted to 18.0%. In addition, the “% CA-SP1 Accumulation 100 nM NL4-3” value in the assay with WT pNL4-3 is 62.0%.
As to `C=C(C)[C@@H]1CC[C@]2(CCNCCN3CCN(Cc4cccc5ccccc45)CC3)CC[C@]3(C)[C@H](CC[C@@H]4[C@@]5(C)CC[C@H](OC(=O)CC(C)(C)C(=O)O)C(C)(C)[C@@H]5CC[C@]43C)[C@@H]12` [Compound 51q, (3β)-17-[2-[[2-[4-(1-Naphthalenylmethyl)piperazin-1-yl]ethyl]amino]ethyl]-28-norlup-20(29)-en-3-ol, 3-(1-Hydrogen 2,2-Dimethylbutanedioate)], the “% CA-SP1 Accumulation 10 nM SP1 V7A” value in the assay with pNL4-3 SP1-V7A worked out at 11.6%. Further, the “% CA-SP1 Accumulation 10 nM NL4-3” value in the assay on WT pNL4-3 was 26.8%.
For `C=C(C)[C@@H]1CC[C@]2(CCNCCN3CCC(S(C)(=O)=O)CC3)CC[C@]3(C)[C@H](CC[C@@H]4[C@@]5(C)CC[C@H](OC(=O)CC(C)(C)C(=O)O)C(C)(C)[C@@H]5CC[C@]43C)[C@@H]12` [Compound 51gg, (3β)-17-[2-[[2-[4-(Methylsulfonyl)piperidin-1-yl]ethyl]amino]ethyl]-28-norlup-20(29)-en-3-ol, 3-(1-Hydrogen 2,2-Dimethylbutanedioate)], in that order: 30.9% and 57.7%.
For `C=C(C)[C@@H]1CC[C@]2(CCNCCN3CCN(Cc4ccc5ccccc5n4)CC3)CC[C@]3(C)[C@H](CC[C@@H]4[C@@]5(C)CC[C@H](OC(=O)CC(C)(C)C(=O)O)C(C)(C)[C@@H]5CC[C@]43C)[C@@H]12` [Compound 51t, (3β)-17-[2-[[2-[4-(2-Quinolinylmethyl)piperazin-1-yl]ethyl]amino]ethyl]-28-norlup-20(29)-en-3-ol, 3-(1-Hydrogen 2,2-Dimethylbutanedioate)], the “% CA-SP1 Accumulation 10 nM SP1 V7A” value with pNL4-3 SP1-V7A is given as 18.6%. For the same compound, the “% CA-SP1 Accumulation 10 nM NL4-3” value with WT pNL4-3 is recorded as 56.1%.
Regarding `C=C(C)[C@@H]1CC[C@]2(CCNCCN3CCN(Cc4ccc(F)cc4)CC3)CC[C@]3(C)[C@H](CC[C@@H]4[C@@]5(C)CC[C@H](OC(=O)CC(C)(C)C(=O)O)C(C)(C)[C@@H]5CC[C@]43C)[C@@H]12` [Compound 51l, (3β)-17-[2-[[2-[4-(4-Fluorophenylmethyl)piperazin-1-yl]ethyl]amino]ethyl]-28-norlup-20(29)-en-3-ol, 3-(1-Hydrogen 2,2-Dimethylbutanedioate)], the “% CA-SP1 Accumulation 10 nM SP1 V7A” value in the assay on pNL4-3 SP1-V7A is listed as 38.2 (3) %. Also, the “% CA-SP1 Accumulation 10 nM NL4-3” value in the assay with WT pNL4-3 was 48.9%.
Take `C=C(C)[C@@H]1CC[C@]2(CCNCCCN3CCCC3)CC[C@]3(C)[C@H](CC[C@@H]4[C@@]5(C)CC[C@H](OC(=O)CC(C)(C)C(=O)O)C(C)(C)[C@@H]5CC[C@]43C)[C@@H]12` [Compound 51z, (3β)-17-[2-[[3-(1-Pyrrolidinyl)propyl]amino]ethyl]-28-norlup-20(29)-en-3-ol, 3-(1-Hydrogen 2,2-Dimethylbutanedioate) Sulfate]: in the assay on pNL4-3 SP1-V7A, the “% CA-SP1 Accumulation 10 nM SP1 V7A” value worked out at 7.5% and the “% CA-SP1 Accumulation 100 nM SP1 V7A” value was determined as 10.5%. Moreover, in the assay with WT pNL4-3, the “% CA-SP1 Accumulation 10 nM NL4-3” value was 9.5% and the “% CA-SP1 Accumulation 100 nM NL4-3” value was 19.9%.
As for `CC(C)(CC(=O)O[C@H]1CC[C@]2(C)[C@H]3CC[C@@H]4[C@H]5[C@H](C6(C)CC6)CC[C@]5(CCNCCN5CCCC5)CC[C@@]4(C)[C@]3(C)CC[C@H]2C1(C)C)C(=O)O` [Compound 51h, (3β)-17-[2-[[2-(1-Pyrrolidinyl)ethyl]amino]ethyl]-20,29-methano-28-norlupan-3-ol, 3-(1-Hydrogen 2,2-Dimethylbutanedioate)], the “% CA-SP1 Accumulation 100 nM SP1 V7A” value with pNL4-3 SP1-V7A is given as 20.1%. Also, the “% CA-SP1 Accumulation 100 nM NL4-3” value with WT pNL4-3 was 70.1%.
In the case of `C=C(C)[C@@H]1CC[C@]2(CCNCCCN3CCN(S(C)(=O)=O)CC3)CC[C@]3(C)[C@H](CC[C@@H]4[C@@]5(C)CC[C@H](OC(=O)CC(C)(C)CC(=O)O)C(C)(C)[C@@H]5CC[C@]43C)[C@@H]12` [Compound 51c, (3β)-17-[2-[[3-[4-(Methylsulfonyl)piperazin-1-yl]propyl]amino]ethyl]-28-norlup-20(29)-en-3-ol, 3-(Hydrogen 3,3-Dimethylpentanedioate)], the “% CA-SP1 Accumulation 100 nM SP1 V7A” value with pNL4-3 SP1-V7A is 29.2 (3) %. Also, the “% CA-SP1 Accumulation 100 nM NL4-3” value with WT pNL4-3 is reported as 72.9 (3) %.
In the case of `C=C(C)[C@@H]1CC[C@]2(CNCCN3CCN(Cc4ccccc4)CC3)CC[C@]3(C)[C@H](CC[C@@H]4[C@@]5(C)CC[C@H](OC(=O)CC(C)(C)C(=O)O)C(C)(C)[C@@H]5CC[C@]43C)[C@@H]12` [Compound 51w, (3β)-28-[[2-[4-(Phenylmethyl)piperazin-1-yl]ethyl]amino]lup-20(29)-en-3-ol, 3-(1-Hydrogen 2,2-Dimethylbutanedioate) Sesquisulfate], in the assay with pNL4-3 SP1-V7A, the “% CA-SP1 Accumulation 10 nM SP1 V7A” value is 9.6% and the “% CA-SP1 Accumulation 100 nM SP1 V7A” value came out at 21.6%. In the assay with WT pNL4-3, the “% CA-SP1 Accumulation 10 nM NL4-3” value came to 16.3% and the “% CA-SP1 Accumulation 100 nM NL4-3” value was 50.1%.
For the compound `C=C(C)[C@@H]1CC[C@]2(CCCNCCN3CCS(=O)(=O)CC3)CC[C@]3(C)[C@H](CC[C@@H]4[C@@]5(C)CC[C@H](OC(=O)CC(C)(C)C(=O)O)C(C)(C)[C@@H]5CC[C@]43C)[C@@H]12` [Compound 51dd, (3β)-17-[[[3-[2-(1,1-Dioxothiomorpholin-4-yl)]Ethyl]Amino]Propyl]-28-norlup-20(29)-en-3-ol, 3-(1-Hydrogen 2,2-Dimethylbutanedioate) Sulfate], in the assay with pNL4-3 SP1-V7A, the “% CA-SP1 Accumulation 10 nM SP1 V7A” value amounted to 5.9% and the “% CA-SP1 Accumulation 100 nM SP1 V7A” value is 7.3%. Moreover, in the assay with WT pNL4-3, the “% CA-SP1 Accumulation 10 nM NL4-3” value worked out at 8.2% and the “% CA-SP1 Accumulation 100 nM NL4-3” value amounted to 9.7%.
As for `CN1CCN(CCCNCC[C@]23CC[C@@H](C4(C)CC4)[C@@H]2[C@H]2CC[C@@H]4[C@@]5(C)CC[C@H](OC(=O)CC(C)(C)C(=O)O)C(C)(C)[C@@H]5CC[C@@]4(C)[C@]2(C)CC3)CC1` [Compound 51i, (3β)-17-[2-[[3-(4-Methylpiperazin-1-yl)propyl]amino]ethyl]-20,29-methano-28-norlupan-3-ol, 3-(1-Hydrogen 2,2-Dimethylbutanedioate)], the “% CA-SP1 Accumulation 100 nM SP1 V7A” value in the assay on pNL4-3 SP1-V7A worked out at 22.0%. In addition, the “% CA-SP1 Accumulation 100 nM NL4-3” value with WT pNL4-3 is given as 71.9%.
For `C=C(C)[C@@H]1CC[C@]2(CNCCN3CCS(=O)(=O)CC3)CC[C@]3(C)[C@H](CC[C@@H]4[C@@]5(C)CC[C@H](OC(=O)CC(C)(C)C(=O)O)C(C)(C)[C@@H]5CC[C@]43C)[C@@H]12` [Compound 51y, (3β)-28-[[2-[(1,1-Dioxothiomorpholin-4-yl)]ethyl]amino]lup-20(29)-en-3-ol, 3-(1-Hydrogen 2,2-Dimethylbutanedioate) Sulfate], in the assay with pNL4-3 SP1-V7A, the “% CA-SP1 Accumulation 10 nM SP1 V7A” value amounted to 28.5% and the “% CA-SP1 Accumulation 100 nM SP1 V7A” value is on record as 28.1%. For the same compound, in the assay on WT pNL4-3, the “% CA-SP1 Accumulation 10 nM NL4-3” value is reported as 56.4% and the “% CA-SP1 Accumulation 100 nM NL4-3” value came to 69.4%.
Turning to `C=C(C)[C@@H]1CC[C@]2(CCNCCN3CCC(O)CC3)CC[C@]3(C)[C@H](CC[C@@H]4[C@@]5(C)CC[C@H](OC(=O)CC(C)(C)C(=O)O)C(C)(C)[C@@H]5CC[C@]43C)[C@@H]12` [Compound 51ii, (3β)-17-[2-[[2-(4-Hydroxypiperidin-1-yl)ethyl]amino]ethyl]-28-norlup-20(29)-en-3-ol, 3-(1-Hydrogen 2,2-Dimethylbutanedioate)], in the assay with pNL4-3 SP1-V7A, the “% CA-SP1 Accumulation 10 nM SP1 V7A” value is 29.5 (3) %. In addition, the “% CA-SP1 Accumulation 10 nM NL4-3” value with WT pNL4-3 came out at 70.1%.
As to `CN(C)CCCCNCC[C@]12CC[C@@H](C3(C)CC3)[C@@H]1[C@H]1CC[C@@H]3[C@@]4(C)CC[C@H](OC(=O)CC(C)(C)C(=O)O)C(C)(C)[C@@H]4CC[C@@]3(C)[C@]1(C)CC2` [Compound 51j, (3β)-17-[2-[[(4-Dimethylamino)butyl]amino]ethyl]-20,29-methano-28-norlupan-3-ol, 3-(1-Hydrogen 2,2-Dimethylbutanedioate)], in the assay with pNL4-3 SP1-V7A, the “% CA-SP1 Accumulation 100 nM SP1 V7A” value came out at 6.4%. In addition, the “% CA-SP1 Accumulation 100 nM NL4-3” value with WT pNL4-3 was determined as 53.6%.
